Test results from PubChem BioAssay (NCI).
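96-well plates; 48 h exposure; 5 concentrations. Endpoints by linear interpolation between flanking doses. Not reached: highest tested concentration assigned. TGI marks complete inhibition of growth.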 Where a SMILES comes first, the peptide text is derived from it. The star is where a group is joined. Cbz = O=C(OCc1ccccc1)*

Legend:
Test in all cases: NCI-60 cell line screen, 48 h
[1] = tested on: A549 NSCLC
[2] = tested on: SF-539 CNS
[3] = tested on: SR leukemia
[4] = tested on: SNB-19 CNS

Question: How did the TGI [1] turn out when `O=C(O)CCC(NC(=O)OCc1ccccc1)C(=O)NC(Cc1cnc[nH]1)C(=O)O` (stereo not drawn) (Cbz-Glu-His-OH; configuration not given here) was run?
Answer: Its TGI is > 100 µM.

Question: What about the TGI [2] of the same compound?
Answer: Its TGI is > 100 µM.

Question: And the TGI [3]?
Answer: The TGI was > 100 µM.

Question: And the TGI [4]?
Answer: Its TGI is > 100 µM.

Question: `O=[N+]([O-])/C(C(Cl)=C(Cl)Cl)=C(/Cl)Sc1ccccc1` was tested. Which TGI [1] did it give?
Answer: Its TGI is 13.5 µM.

Question: What about the TGI [2] of the same compound?
Answer: The TGI was 3.78 µM.

Question: And the TGI [3]?
Answer: Its TGI is 2.38 µM.

Question: What about the TGI [4] of the same compound?
Answer: The TGI was 36 µM.

Question: Which TGI [1] does the source give for `O=C1C(c2c(O)[nH]c3ccc(F)cc23)=Nc2ccccc21` here?
Answer: The TGI was > 100 µM.

Question: What about the TGI [3] of the same compound?
Answer: Its TGI is > 100 µM.

Question: And the TGI [4]?
Answer: Its TGI is > 100 µM.

Question: Which TGI [1] does the source give for `Nc1ncnc2c1ncn2[C@@H]1C[C@@H]1CO` here?
Answer: Its TGI is > 100 µM.

Question: What about the TGI [2] of the same compound?
Answer: Its TGI is > 100 µM.

Question: And the TGI [3]?
Answer: Its TGI is > 100 µM.

Question: And the TGI [4]?
Answer: Its TGI is > 100 µM.

Question: `CCOC(=O)c1nnc2c(C(=O)OCC)c3ccccc3n2c1N` was tested. Which TGI [1] did it give?
Answer: Its TGI is > 100 µM.

Question: And the TGI [2]?
Answer: Its TGI is > 100 µM.

Question: And the TGI [3]?
Answer: Its TGI is > 100 µM.

Question: What about the TGI [4] of the same compound?
Answer: The TGI was > 100 µM.

Question: What does the source list for `Clc1ccc(C2C3COc4ccccc4C3=NN2c2ccccc2)cc1` (stereo unspecified)?
Answer: TGI [1]: > 100 µM; TGI [2]: > 100 µM; TGI [3]: 1.78 µM; TGI [4]: > 93.5 µM

Question: What does the source list for `CC12CC(c3ccccc3O1)C(C(=O)Nc1ccc(Cl)cc1Cl)C(=O)N2` (stereo unspecified)?
Answer: TGI [1]: 56.8 µM; TGI [2]: > 100 µM; TGI [4]: > 100 µM

Question: Which results are given for `CCC(C)OC(=O)/C(Br)=C1/OC(=O)c2ccccc2-c2ccccc21` (stereo unspecified)?
Answer: TGI [1]: > 100 µM; TGI [2]: 52.2 µM; TGI [4]: > 100 µM

Question: `NC(=O)C(C(N)=O)=C(O)C(=O)/C=C(\O)c1ccccc1` was tested. Which TGI [1] did it give?
Answer: The TGI was > 100 µM.

Question: What about the TGI [2] of the same compound?
Answer: Its TGI is > 100 µM.

Question: What about the TGI [3] of the same compound?
Answer: Its TGI is 13.9 µM.

Question: And the TGI [4]?
Answer: The TGI was > 100 µM.

Question: Which TGI [1] does the source give for `Cn1ccc(C(=O)NCCN(CCNC(=O)c2ccn(C)c(=O)c2O)CCNC(=O)c2cccc(=O)n2O)c(O)c1=O` here?
Answer: Its TGI is > 100 µM.

Question: What about the TGI [2] of the same compound?
Answer: Its TGI is > 100 µM.

Question: What about the TGI [3] of the same compound?
Answer: The TGI was > 100 µM.

Question: What about the TGI [4] of the same compound?
Answer: Its TGI is > 100 µM.

Question: For `COC(=O)c1cc2ccc(N)nc2[nH]c1=O`, which TGI [1] is on record?
Answer: The TGI was > 100 µM.

Question: And the TGI [2]?
Answer: Its TGI is > 100 µM.

Question: What about the TGI [4] of the same compound?
Answer: Its TGI is > 100 µM.

Question: Which TGI [1] does the source give for `COc1ccc(P2(=S)OC(C)(C)C(C)(C)O2)cc1` here?
Answer: The TGI was > 100 µM.

Question: What about the TGI [2] of the same compound?
Answer: Its TGI is > 100 µM.

Question: And the TGI [3]?
Answer: The TGI was > 100 µM.

Question: What about the TGI [4] of the same compound?
Answer: The TGI was > 100 µM.

Question: How did the TGI [1] turn out when `COC(=O)C1=C(O)C(C(=O)OC)[C@]2(O)[C@H](C(=O)OC)[C@H]1C[C@@H](c1ccc(C(F)(F)F)cc1)[C@H]2C(=O)OC` (stereo partly specified) was run?
Answer: Its TGI is > 100 µM.

Question: What about the TGI [2] of the same compound?
Answer: The TGI was 4 µM.

Question: And the TGI [3]?
Answer: The TGI was > 100 µM.

Question: What about the TGI [4] of the same compound?
Answer: Its TGI is 68.9 µM.

Question: Which results are given for `Cc1cc(S(=O)(=O)Nc2n[nH]c(N)n2)c(SCC(=O)O)cc1Cl`?
Answer: TGI [1]: > 10 µM; TGI [2]: > 10 µM; TGI [3]: > 10 µM; TGI [4]: > 10 µM

Question: For `CCOC(=O)C12OC(CCC1=O)C(C(=O)OC)=C2C(=O)OC` (stereo unspecified), which TGI [1] is on record?
Answer: Its TGI is > 10 µM.

Question: And the TGI [2]?
Answer: Its TGI is > 10 µM.

Question: And the TGI [3]?
Answer: Its TGI is > 10 µM.

Question: And the TGI [4]?
Answer: The TGI was > 10 µM.

Question: For `NNC(=O)c1n[nH]nc1C(=O)NN`, which TGI [1] is on record?
Answer: The TGI was > 100 µM.

Question: What about the TGI [3] of the same compound?
Answer: Its TGI is > 100 µM.

Question: And the TGI [4]?
Answer: Its TGI is > 100 µM.

Question: For `O=C(O)C(NCc1ccccc1)C(NCc1ccccc1)C(=O)O` (stereo unspecified), which TGI [1] is on record?
Answer: The TGI was > 100 µM.

Question: What about the TGI [2] of the same compound?
Answer: The TGI was > 100 µM.

Question: What about the TGI [3] of the same compound?
Answer: The TGI was > 100 µM.

Question: What about the TGI [4] of the same compound?
Answer: Its TGI is > 100 µM.

Question: Which results are given for `O=C(O)[C@@H]1CCS(=O)(=O)N1`?
Answer: TGI [1]: > 100 µM; TGI [2]: > 100 µM; TGI [3]: > 100 µM; TGI [4]: > 100 µM

Question: `CCOC(=O)NC(Nc1ccc(S(=O)(=O)Nc2nc(C)cc(C)n2)cc1)(C(=O)OCC)C(F)(F)F` (stereo unspecified) was tested. Which TGI [1] did it give?
Answer: The TGI was > 100 µM.

Question: And the TGI [2]?
Answer: Its TGI is > 100 µM.

Question: And the TGI [3]?
Answer: The TGI was 27.4 µM.

Question: And the TGI [4]?
Answer: Its TGI is > 100 µM.
